Assay results reported in patent US8846928B2 (Portola Pharmaceuticals, Inc., priority 2010, dated 2014).
pIC50: −log10 of the molar value.

Each molecule was assayed against T1, full length active recombinant SYK enzyme (Homo sapiens, UniProt P43405) (assay: Inhibition of Syk tyrosine phosphorylation activity (LANCE TR-FRET kinase assay)).
T1 construct: full length active recombinant SYK enzyme (Millipore, Calif.); purchased Millipore
Assay type: biochemical
Experimental: Inhibition of Syk Tyrosine Phosphorylation Activity
Potency of candidate molecules for inhibiting Syk tyrosine phosphorylation activity is assessed by measuring the ability of a test compound to inhibit Syk-mediated tyrosine phosphorylation of a Syk-specific substrate.
SYK tyrosine phosphorylation activity is measured using the LANCE™ Technology developed by Perkin Elmer Life and Analytical Sciences (Boston, Mass.). LANCE™ refers to homogeneous time resolved fluorometry applications using techniques such as time-resolved fluorescence resonance energy transfer assay (TR-FRET) (see generally for procedures in Perkin Elmer Application Note—How to Optimize a Tyrosine Kinase Assay Using Time Resolved Fluorescence-Based LANCE Detection, wwww.perkinelmer.com/lifesciences). The assay principle involves detection of a phosphorylated substrate using energy transfer from a phosphospecific europium-labeled antibody to streptavidin-allophycocyanin as an acceptor.
To test the ability of candidate molecules to inhibit SYK tyrosine phosphorylation activity, molecules are reconstituted in 30% DMSO and serially diluted 1:3 with the final dilution containing DMSO in the absence of the candidate molecule. The final DMSO concentration in the assay is 3%. Kinase assays are performed as a two part reaction. […] The second reaction involves termination of the kinase reaction and the simultaneous addition of the detection reagents—europium-labeled anti-phosphotyrosine reagent (Eu-W1024-PY100, Perkin Elmer, Boston, Mass.) and Streptavidin-Allophycocyanin detection reagent (SA-APC, Prozyme, Calif.). The kinase reaction is performed in a black U-bottom 96-well microtitre plate. The final reaction volume is 50 μL and contains a final concentration of 1 nM active SYK enzyme, 550 nM SYK-substrate, and 100 μM ATP diluted in a buffer containing 50 mM Tris pH 7.5, 5 mM MgCl2, and 1 mM DTT. The reaction is allowed to proceed for 1 hour at room temperature. The quench buffer contains 100 mM Tris pH 7.5, 300 mM NaCl2, 20 mM EDTA, 0.02% Brij35, and 0.5% BSA. The detection reagents are added to the reaction mixture at the following dilutions-1:500 for Eu-W1024-PY100 and 1:250 for SA-APC. The kinase reaction is terminated by the addition of 50 μL quench buffer containing the detection reagents. The detection is allowed to proceed for 1 hr at room temperature. Detection of the phosphorylated substrate in the absence and presence of inhibitors is measured in the TR-FRET instrument, Analyst HT (Molecular Probes, Sunnyvale, Calif.) and the condition for measurements are set up using CriterionHost Release 2.0 (Molecular Probes, Sunnyvale, Calif.). The settings used are a follows: excitation 360 nm, emission 665-7.5 nm, beam splitter 350 nm 50/50, flash 100 pulses, delay 60 us, integration 400 us, z-height 2 mm. […] IC50s were derived by non-linear regression analysis. […]

pIC50 | SMILES
> 9.00 | NC(=O)c1cc(F)c(N[C@@H]2CCCC[C@@H]2N)nc1Nc1ccc2ncsc2c1 [Example 60, 6-((1R,2S)-2-aminocyclohexylamino)-2-(benzo[d]thiazol-6-ylamino)-5-fluoronicotinamide]
8.00 to 9.00 | NC(=O)c1cc(F)c(N[C@@H]2CCCC[C@@H]2N)nc1Nc1ccc2nccn2c1 [Example 61, 6-((1R,2S)-2-aminocyclohexylamino)-5-fluoro-2-(imidazo[1,2-a]pyridin-6-ylamino)nicotinamide]
8.00 to 9.00 | NC(=O)c1cc(F)c(N[C@@H]2CCCC[C@@H]2N)nc1Nc1ccn2ccnc2c1 [Example 62, 6-((1R,2S)-2-aminocyclohexylamino)-5-fluoro-2-(imidazo[1,2-a]pyridin-7-ylamino)nicotinamide]
8.00 to 9.00 | Cn1ccc2cc(Nc3nc(N[C@@H]4CCCC[C@@H]4N)c(F)cc3C(N)=O)ccc21 [Example 63, 6-((1R,2S)-2-aminocyclohexylamino)-5-fluoro-2-(1-methyl-1H-indol-5-ylamino)nicotinamide]
> 9.00 | Cn1ccc2c(Nc3nc(N[C@@H]4CCCC[C@@H]4N)c(F)cc3C(N)=O)cccc21 [Example 64, 6-((1R,2S)-2-aminocyclohexylamino)-5-fluoro-2-(1-methyl-1H-indol-4-ylamino)nicotinamide]
6.00 to 7.00 | Cn1cc2c(Nc3nc(N[C@@H]4CCCC[C@@H]4N)c(F)cc3C(N)=O)cccc2n1 [Example 65, 6-((1R,2S)-2-aminocyclohexylamino)-5-fluoro-2-(2-methyl-2H-indazol-4-ylamino)nicotinamide]
> 9.00 | NC(=O)c1cc(F)c(N[C@@H]2CCCC[C@@H]2N)nc1Nc1ccc2ncccc2c1 [Example 66, 6-((1R,2S)-2-aminocyclohexylamino)-5-fluoro-2-(quinolin-6-ylamino)nicotinamide]
> 9.00 | NC(=O)c1cc(F)c(N[C@@H]2CCCC[C@@H]2N)nc1Nc1ccc2cnccc2c1 [Example 67, 6-((1R,2S)-2-aminocyclohexylamino)-5-fluoro-2-(isoquinolin-6-ylamino)nicotinamide]
8.00 to 9.00 | NC(=O)c1cc(F)c(N[C@@H]2CCCC[C@@H]2N)nc1Nc1ccc2ccncc2c1 [Example 68, 6-((1R,2S)-2-aminocyclohexylamino)-5-fluoro-2-(isoquinolin-7-ylamino)nicotinamide]
8.00 to 9.00 | NC(=O)c1cc(F)c(N[C@@H]2CCCC[C@@H]2N)nc1Nc1ccc2cccnc2c1 [Example 69, 6-((1R,2S)-2-aminocyclohexylamino)-5-fluoro-2-(quinolin-7-ylamino)nicotinamide]
8.00 to 9.00 | NC(=O)c1cc(F)c(N[C@@H]2CCCC[C@@H]2N)nc1Nc1cnc2ccccc2c1 [Example 70, 6-((1R,2S)-2-aminocyclohexylamino)-5-fluoro-2-(quinolin-3-ylamino)nicotinamide]
8.00 to 9.00 | NC(=O)c1cc(F)c(N[C@@H]2CCCC[C@@H]2N)nc1Nc1cncc2ccccc12 [Example 71, 6-((1R,2S)-2-aminocyclohexylamino)-5-fluoro-2-(isoquinolin-4-ylamino)nicotinamide]
8.00 to 9.00 | NC(=O)c1cc(F)c(N[C@@H]2CCCC[C@@H]2N)nc1Nc1ccnc2ccccc12 [Example 72]
8.00 to 9.00 | NC(=O)c1cc(F)c(N[C@@H]2CCCC[C@@H]2N)nc1Nc1cccc2ncccc12 [Example 73, 6-((1R,2S)-2-aminocyclohexylamino)-5-fluoro-2-(quinolin-5-ylamino)nicotinamide]
8.00 to 9.00 | NC(=O)c1cc(F)c(N[C@@H]2CCCC[C@@H]2N)nc1Nc1cccc2cnccc12 [Example 74, 6-((1R,2S)-2-aminocyclohexylamino)-5-fluoro-2-(isoquinolin-5-ylamino)nicotinamide]
6.00 to 7.00 | NC(=O)c1cc(F)c(N[C@@H]2CCCC[C@@H]2N)nc1Nc1cccc2ccncc12 [Example 75, 6-((1R,2S)-2-aminocyclohexylamino)-5-fluoro-2-(isoquinolin-8-ylamino)nicotinamide]
8.00 to 9.00 | NC(=O)c1cc(F)c(N[C@@H]2CCCC[C@@H]2N)nc1Nc1ccc2nccnc2c1 [Example 76, 6-((1R,2S)-2-aminocyclohexylamino)-5-fluoro-2-(quinoxalin-6-ylamino)nicotinamide]
7.00 to 8.00 | NC(=O)c1cc(F)c(N[C@@H]2CCCC[C@@H]2N)nc1Nc1cnc2nccnc2c1 [Example 77, 6-((1R,2S)-2-aminocyclohexylamino)-5-fluoro-2-(pyrido[3,2-b]pyrazin-7-ylamino)nicotinamide]
8.00 to 9.00 | NC(=O)c1cc(F)c(N[C@@H]2CCCC[C@@H]2N)nc1Nc1ccc2c(c1)OCCO2 [Example 78]
8.00 to 9.00 | COCCOc1cccc(Nc2nc(N[C@@H]3CCCC[C@@H]3N)c(F)cc2C(N)=O)c1 [Example 79, 6-((1R,2S)-2-aminocyclohexylamino)-5-fluoro-2-(3-(2-methoxyethoxy)phenylamino)nicotinamide]
8.00 to 9.00 | NC(=O)c1cc(F)c(N[C@@H]2CCCC[C@@H]2N)nc1Nc1cccc(OC2CCOCC2)c1 [Example 80, 6-((1R,2S)-2-aminocyclohexylamino)-5-fluoro-2-(3-(tetrahydro-2H-pyran-4-yloxy)phenylamino)nicotinamide]
7.00 to 8.00 | NC(=O)c1cc(F)c(N[C@@H]2CCCC[C@@H]2N)nc1Nc1ccc(OC2CCOCC2)cc1 [Example 81, 6-((1R,2S)-2-aminocyclohexylamino)-5-fluoro-2-(4-(tetrahydro-2H-pyran-4-yloxy)phenylamino)nicotinamide]
8.00 to 9.00 | Cc1cc(Nc2nc(N[C@@H]3CCCC[C@@H]3N)c(F)cc2C(N)=O)sn1 [Example 82, 6-((1R,2S)-2-aminocyclohexylamino)-5-fluoro-2-(3-methylisothiazol-5-ylamino)nicotinamide]
7.00 to 8.00 | Cn1cc(Nc2nc(N[C@@H]3CCCC[C@@H]3N)c(F)cc2C(N)=O)cn1 [Example 83, 6-((1R,2S)-2-aminocyclohexylamino)-5-fluoro-2-(1-methyl-1H-pyrazol-4-ylamino)nicotinamide]
6.00 to 7.00 | NC(=O)c1cc(F)c(N[C@@H]2CCCC[C@@H]2N)nc1Nc1ccnnc1 [Example 84]
8.00 to 9.00 | Cc1cc(Nc2nc(N[C@@H]3CCCC[C@@H]3N)c(F)cc2C(N)=O)ccn1 [Example 85, 6-((1R,2S)-2-aminocyclohexylamino)-5-fluoro-2-(2-methylpyridin-4-ylamino)nicotinamide]
8.00 to 9.00 | Cc1cc(Nc2nc(N[C@@H]3CCCC[C@@H]3N)c(F)cc2C(N)=O)cc(C)n1 [Example 86, 6-((1R,2S)-2-aminocyclohexylamino)-2-(2,6-dimethylpyridin-4-ylamino)-5-fluoronicotinamide]
8.00 to 9.00 | Cc1cncc(Nc2nc(N[C@@H]3CCCC[C@@H]3N)c(F)cc2C(N)=O)c1 [Example 87, 6-((1R,2S)-2-aminocyclohexylamino)-5-fluoro-2-(5-methylpyridin-3-ylamino)nicotinamide]
8.00 to 9.00 | COc1cncc(Nc2nc(N[C@@H]3CCCC[C@@H]3N)c(F)cc2C(N)=O)c1 [Example 88, 6-((1R,2S)-2-aminocyclohexylamino)-5-fluoro-2-(5-methoxypyridin-3-ylamino)nicotinamide]
